Assay results reported in patent US10174040B2, “Pyrrolopyrimidine compound or salt thereof and compositions containing the pyrrolopyrimidine compound or salt thereof” (TAIHO PHARMACEUTICAL CO., LTD., priority 2014, dated 2019).
Each block holds one molecule with its values, some of them ahead of it.

What was measured:
[1] = tested on: human acute T lymphoblastic leukemia CCRF-CEM cell lines; assay: Cell growth inhibition 1 (CellTiter-Glo), CCRF-CEM; format: cell-based; conditions: 72 hours culture with compound
carbonic anhydrase II = carbonic anhydrase II (Homo sapiens (Human), UniProt P00918); assay: Carbonic anhydrase II enzyme activity inhibition (4-NPA esterase activity); format: biochemical
[2] = tested on: human colon cancer HCT116 cell line; assay: Cell growth inhibition 2 (CellTiter-Glo), HCT116; format: cell-based; conditions: HCT-116, 384-well plate
[3] = tested on: human pancreatic cancer Capan-1 cell line; assay: Cell growth inhibition 2 (CellTiter-Glo), Capan-1; format: cell-based; conditions: 384-well plate
[4] = tested on: human lung cancer A-427 cell line; assay: Cell growth inhibition 2 (CellTiter-Glo), A-427; format: cell-based; conditions: 384-well plate
[5] = tested on: human breast cancer MDA-MB-453 cell line; assay: Cell growth inhibition 2 (CellTiter-Glo), MDA-MB-453; format: cell-based; conditions: 384-well plate
[6] = tested on: human prostate cancer LNCAP.FGC cell line; assay: Cell growth inhibition 2 (CellTiter-Glo), LNCAP.FGC; format: cell-based; conditions: 384-well plate
[7] = tested on: human osteo- and soft tissue sarcoma SJCRH30 cell line; assay: Cell growth inhibition 2 (CellTiter-Glo), SJCRH30; format: cell-based; conditions: 384-well plate
[8] = tested on: human multiple myeloma U266B1 cell line; assay: Cell growth inhibition 2 (CellTiter-Glo), U266B1; format: cell-based; conditions: 384-well plate
[9] = tested on: human skin cancer A-431 cell line; assay: Cell growth inhibition 2 (CellTiter-Glo), A-431; format: cell-based; conditions: 384-well plate
[10] = tested on: human acute leukemia MV-4-11 cell line; assay: Cell growth inhibition 2 (CellTiter-Glo), MV-4-11; format: cell-based; conditions: MV4-11, 384-well plate
[11] = tested on: human diffuse large B-cell lymphoma DB cell line; assay: Cell growth inhibition 2 (CellTiter-Glo), DB; format: cell-based; conditions: 384-well plate
[12] = tested on: Human colon cancer HCT-116 cell lines; assay: Antitumor effect on tumor cells transplanted into mice 1 (HCT-116, tumor volume); format: in vivo, BALB/cAJcl-nu/nu mice; conditions: HCT-116 in nude mice; for RTV15 comparison with control: Dunnett's test
Experimental: (§1) Human colon cancer HCT-116 cell lines were washed in PBS and suspended at a concentration of 4×10^7 cells/mL. 0.1 mL of this cell suspension was subcutaneously implanted in the right chest of 6-week-old BALB/cAJcl-nu/nu mice (produced by CLEA Japan, Inc.).
(§2) The length and the width of the implanted tumor and the body weight were measured. The tumor volume (TV) was calculated using the following equation (equation D). TV (mm3)=(length×width^2)/2, wherein the unit of length and width is mm (equation D).
(§3) When the TV reached 100 to 300 mm3, the animals were assigned to each group in accordance with a stratified randomization procedure. The day was considered day 1, the TV on the day was considered TV1, and the body weight on the day was considered BW1.
(§4) A required amount of the test compound was weighed to prepare an administration solution.
(§5) Thereafter, the length and the width of the tumor and the body weight (BWn) on day n were measured over time in the same manner, and the TVn of each mouse was calculated. Further, the relative tumor volume (RTVn) was calculated based on the TVn of each mouse using the following equation (equation E); the treatment/control (T/C) value (%) was calculated based on the mean RTVn of each drug administration group using the following equation (equation F); and the weight change rate (BWCn) was calculated using the following equation (equation G). RTVn=TVn/TV1 (equation E) T/Cn(%)=(mean RTV of each drug administration group on the last day of the test)/(mean RTV of the control group on the last day of the test)×100 (equation F) BWCn (%)=(BWn−BW1)/BW1×100 (equation G) FIGS. 1 and 2, and Table 21 below show the results.

[13] = Body weight change, antitumor test 1 (HCT-116 mice); format: in vivo, BALB/cAJcl-nu/nu mice
Experimental: as §1, §2, §3, §4
as §5, with “RTVn=TVn/TV1 (equation E) T/Cn(%)=(mean RTV of each drug administration group on the last day of the test)/(mean RTV of the control group on the last day of the test)×100 (equation F) BWCn (%)=(BWn−BW1)/BW1×100 (equation G) FIGS. 1 and 2, and Table 21 below show the results.” left out

[14] = tested on: Human colon cancer HCT-116 cell lines; assay: Antitumor effect on tumor cells transplanted into mice 2 (HCT-116, tumor volume); format: in vivo, BALB/cAJcl-nu/nu mice; conditions: Dunnett's test; HCT-116 in nude mice; hydrochloride compound of Example 55
[15] = Body weight change, antitumor test 2 (HCT-116 mice); format: in vivo, BALB/cAJcl-nu/nu mice; conditions: HCT-116 xenograft in nude mice, 120 mg/kg/day, administration days 1, 4, 8, 11, day 15
[16] = tested on: human acute lymphoblastic leukemia (ALL) CCRF-CEM cell lines; assay: Antitumor effect on tumor cells transplanted into mice 3 (CCRF-CEM, tumor volume); format: in vivo, BALB/cAJcl-nu/nu mice (nude mice); conditions: Dunnett's test; CCRF-CEM in nude mice; compound hydrochlorides, intravenous
Experimental: as §2, §5
(§6) The tumor growth inhibitory effects on human tumors were evaluated as in Test Example 5, except that the compound hydrochloride obtained in Example 122, the compound hydrochloride (Example 64), and human acute lymphoblastic leukemia (ALL) CCRF-CEM cell lines were used, and the animals were assigned to each group in accordance with a stratified randomization procedure when the TV reached 140 to 380 mm3.
At this time, the cell lines were washed in PBS, and suspended in 50% PBS and 50% Matrigel basement membrane matrix (#356237; produced by BD Biosciences) at a concentration of 1×10^8 cells/mL. 0.1 mL of this cell suspension was subcutaneously implanted to the right chest of 6-week-old BALB/cAJcl-nu/nu mice (nude mice) (produced by CLEA Japan, Inc.). The compound hydrochloride (Example 122) was intravenously administered in an amount of 5 mL per 1 kg of body weight on days 1 and 8, and the compound hydrochloride (Example 133) was intravenously administered in an amount of 5 mL per 1 kg of body weight on days 1 and 8.

[17] = Body weight change, antitumor test 3 (CCRF-CEM mice); format: in vivo, BALB/cAJcl-nu/nu mice (nude mice); conditions: for change of the body weight compared with the control: CCRF-CEM nude mice, Test Example 7
Experimental: as §2, §5, §6
At this time, the cell lines were washed in PBS, and suspended in 50% PBS and 50% Matrigel basement membrane matrix (#356237; produced by BD Biosciences) at a concentration of 1×10^8 cells/mL. 0.1 mL of this cell suspension was subcutaneously implanted to the right chest of 6-week-old BALB/cAJcl-nu/nu mice (nude mice) (produced by CLEA Japan, Inc.). […]

[18] = biological target: NAE (heterodimer of APPBP1 and UBA3) (Homo sapiens (Human), UniProt Q8TBC4); assay: Nedd8 conjugation inhibitory activity (AlphaScreen assay); format: biochemical; conditions: purified NAE, GST-UBC12, Biotin-Nedd8, ATP
NAE (heterodimer of APPBP1 and UBA3), sequence (Q8TBC4 whole entry): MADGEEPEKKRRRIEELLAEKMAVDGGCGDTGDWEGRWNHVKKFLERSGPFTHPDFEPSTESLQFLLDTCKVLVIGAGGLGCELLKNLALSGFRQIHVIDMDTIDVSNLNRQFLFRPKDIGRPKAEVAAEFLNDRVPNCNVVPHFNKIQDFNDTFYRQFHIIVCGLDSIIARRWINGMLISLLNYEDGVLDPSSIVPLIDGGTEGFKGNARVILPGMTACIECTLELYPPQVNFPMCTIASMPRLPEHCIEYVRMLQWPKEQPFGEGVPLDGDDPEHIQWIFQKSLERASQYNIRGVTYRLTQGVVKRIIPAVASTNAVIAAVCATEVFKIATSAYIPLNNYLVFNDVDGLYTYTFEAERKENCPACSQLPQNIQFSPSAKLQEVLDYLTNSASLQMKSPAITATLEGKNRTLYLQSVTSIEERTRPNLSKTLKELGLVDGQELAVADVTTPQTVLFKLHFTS
NAE (heterodimer of APPBP1 and UBA3), sequence (Q13564 whole entry partner): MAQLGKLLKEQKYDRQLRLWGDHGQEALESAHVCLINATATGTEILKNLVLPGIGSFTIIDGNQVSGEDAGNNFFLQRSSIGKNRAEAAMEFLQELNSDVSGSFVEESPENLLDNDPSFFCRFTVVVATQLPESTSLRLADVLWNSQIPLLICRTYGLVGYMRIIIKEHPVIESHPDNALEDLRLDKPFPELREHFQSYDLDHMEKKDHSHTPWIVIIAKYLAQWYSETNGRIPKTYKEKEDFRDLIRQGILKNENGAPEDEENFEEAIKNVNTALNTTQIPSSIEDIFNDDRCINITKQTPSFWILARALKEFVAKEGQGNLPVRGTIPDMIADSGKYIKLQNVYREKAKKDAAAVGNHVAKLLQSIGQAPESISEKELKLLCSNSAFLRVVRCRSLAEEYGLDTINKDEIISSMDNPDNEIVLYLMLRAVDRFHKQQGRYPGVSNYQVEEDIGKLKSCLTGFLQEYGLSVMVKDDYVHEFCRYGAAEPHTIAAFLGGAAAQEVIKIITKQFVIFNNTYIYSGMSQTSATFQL

- IC50 [1]: 89 nM
- IC50 (carbonic anhydrase II; 4-nitrophenyl acetate esterase activity, absorbance at 405 nm): 0.012 µM
- IC50 [2]: 89 nM
- IC50 [3]: 1500 nM
- IC50 [4]: 180 nM
- IC50 [5]: 1900 nM
- IC50 [6]: 410 nM
- IC50 [7]: > 10000 nM
- IC50 [8]: 1400 nM
- IC50 [9]: 750 nM
- IC50 [10]: 110 nM
- IC50 [11]: 560 nM
SMILES: NS(=O)(=O)OC[C@@H]1C[C@@H](n2ccc3c(N[C@H]4CCc5ccccc54)ncnc32)C[C@@H]1O [Comparative Example, N-[(1S)-1-indanyl]-7-[(1R)-3α-hydroxy-4α-(sulfamoyloxymethyl)cyclopentyl]-7H-pyrrolo[2,3-d]pyrimidin-4-amine]
- inhibitory activity against carbonic anhydrase II (carbonic anhydrase II; summary in words of Table 18): exhibited inhibitory activity against carbonic anhydrase II
- RTV15 comparison with control [12]: significantly lower than that of the control
- BWC15 (%) Mean ± SD ([13]; body weight change rate day 15, dose 120 mg/kg/day intravenous, administration day 1, 4, 8, 11): −14.3 ± 5.1%
- RTV15 comparison with control [14]: significantly lower than that of the control
- BWC15 (%) Mean ± SD [15]: −8.4 ± 3.2%
- RTV comparison with control on day 15 [16]: significantly lower than that of the control
- BWC15 (%) Mean ± SD ([17]; CCRF-CEM xenograft in nude mice, 120 mg/kg/day i.v., administration days 1, 4, 8, 11, day 15): 6.1 ± 2.6%

SMILES: Nc1ncnc2c1c(C#Cc1c(F)cc(N3CC[C@H](O)C3)cc1F)cn2[C@@H]1C[C@H](CNS(N)(=O)=O)[C@@H](O)[C@H]1O [Example 121, 4-Amino-5-[2-[2,6-difluoro-4-[(3S)-3-hydroxypyrrolidin-1-yl]phenyl]ethynyl]-7-[(1R,2S,3R,4R)-2,3-dihydroxy-4-[(sulfamoylamino)methyl]cyclopentyl]pyrrolo[2,3-d]pyrimidine]
- IC50 [18]: 0.0062 µM

SMILES: Nc1ncnc2c1c(C#Cc1c(F)cc(N3CC[C@@H](O)C3)cc1F)cn2[C@@H]1C[C@H](CNS(N)(=O)=O)[C@@H](O)[C@H]1O [Example 120, 4-Amino-5-[2-[2,6-difluoro-4-[(3R)-3-hydroxypyrrolidin-1-yl]phenyl]ethynyl]-7-[(1R,2S,3R,4R)-2,3-dihydroxy-4-[(sulfamoylamino)methyl]cyclopentyl]pyrrolo[2,3-d]pyrimidine]
- RTV comparison with control on day 15 [16]: significantly lower than that of the control
- change of the body weight compared with the control [17]: almost the same as that of the control

SMILES: CN1CCOc2c1ccc(F)c2C#Cc1cn([C@@H]2O[C@H](CNS(N)(=O)=O)[C@@H](O)[C@H]2O)c2ncnc(N)c12 [Example 64, 8-[2-[4-Amino-7-[(2R,3R,4S,5R)-3,4-dihydroxy-5-[(sulfamoylamino)methyl]tetrahydrofuran-2-yl]pyrrolo[2,3-d]pyrimidin-5-yl]ethynyl]-7-fluoro-4-methyl-2,3-dihydro-1,4-benzoxazine]
- RTV comparison with Comparative Example [16]: significantly lower than that of the Comparative Example
- RTV comparison with control on day 15 [16]: significantly lower than that of the control

SMILES: Nc1ncnc2c1c(C#Cc1c(F)cc(N3CC[C@H](F)C3)cc1F)cn2[C@@H]1C[C@H](CNS(N)(=O)=O)[C@@H](O)[C@H]1O [Example 116, 4-Amino-5-[2-[2,6-difluoro-4-[(3S)-3-fluoropyrrolidin-1-yl]phenyl]ethynyl]-7-[(1R,2S,3R,4R)-2,3-dihydroxy-4-[(sulfamoylamino)methyl]cyclopentyl]pyrrolo[2,3-d]pyrimidine]
- IC50 [18]: 0.0051 µM

SMILES: Nc1ncnc2c1c(C#Cc1c(F)cccc1F)cn2[C@@H]1O[C@H](CNS(N)(=O)=O)[C@@H](O)[C@H]1O [Example 1, 4-Amino-5-[2-(2,6-difluorophenyl)ethynyl]-7-[(2R,3R,4S,5R)-3,4-dihydroxy-5-[(sulfamoylamino)methyl]tetrahydrofuran-2-yl]pyrrolo[2,3-d]pyrimidine]
- RTV comparison with Comparative Example ([12]; Aspin-Welch's t-test): significantly lower than that of the Comparative Example
- RTV15 comparison with control [12]: significantly lower than that of the control
- change of the body weight compared with the control ([13]; HCT-116 nude mice, Test Example 5): within an acceptable degree

SMILES: CN1CCOc2c1ccc(F)c2C#Cc1cn([C@@H]2C[C@H](CNS(N)(=O)=O)[C@@H](O)[C@H]2O)c2ncnc(N)c12 [Example 122, 8-[2-[4-amino-7-[(1R,2S,3R,4R)-2,3-dihydroxy-4-[(sulfamoylamino)methyl]cyclopentyl]pyrrolo[2,3-d]pyrimidin-5-yl]ethynyl]-7-fluoro-4-methyl-2,3-dihydro-1,4-benzoxazine]
- RTV comparison with Comparative Example [16]: significantly lower than that of the Comparative Example
- RTV comparison with control on day 15 [16]: significantly lower than that of the control

SMILES: Nc1ncnc2c1c(C#Cc1c(F)cccc1F)cn2[C@@H]1C=C(CNS(N)(=O)=O)[C@@H](O)[C@H]1O [Example 128, 4-Amino-5-[2-(2,6-difluorophenyl)ethynyl]-7-[(1R,4R,5S)-4,5-dihydroxy-3-[(sulfamoylamino)methyl]cyclopent-2-en-1-yl]pyrrolo[2,3-d]pyrimidine]
- IC50 [18]: 0.0033 µM

SMILES: Nc1ncnc2c1c(C#Cc1cccc3ccccc13)cn2[C@@H]1O[C@H](COS(N)(=O)=O)[C@@H](O)[C@H]1O [Example 133, [(2R,3S,4R,5R)-5-[4-Amino-5-[2-(1-naphthyl)ethynyl]pyrrolo[2,3-d]pyrimidin-7-yl]-3,4-dihydroxy-tetrahydrofuran-2-yl]methyl sulfamate]
- RTV comparison with control on day 15 [16]: significantly lower than that of the control
- change of the body weight compared with the control [17]: almost the same as that of the control
